# From patent publication US11963997B2, “Anti-tumor polypeptide Bax-BH3, fluorescent polymeric nanomicelle, preparation method and use thereof” (Jilin University, priority 2021, dated 2024)
# Residues, ends and D or L forms follow the SMILES beside them. No end group written: not given here. *: point of attachment. Cbz = O=C(OCc1ccccc1)*; CH2F = FC*
# Legend:
# [1] = system: HEK-293T cells; assay: Fluorescence microscopy of HEK-293T cells after transfection (Hoechst 33342 nuclear staining); format: cell-based; conditions: 1 μg plasmid per well, 4 h transfection then 12 h culture, Z-VAD-FMK 20 μM added 2 h before transfection
# Method: (§1) The cultured HEK-293T cells (purchased from ATCC) were digested and counted with a hemocytometer, the resulting cells were diluted with a medium containing 10% fetal bovine serum (FBS) by volume, and added to a six-well plate, with 2×10^5 cells per well. The six-well plate was incubated in a 5% CO2 incubator at 37° C. until the cells grew to 50% to 70% confluence for transfection. […]
# (§2) During the transfection, a mass-to-volume ratio (m:v) of the plasmid and the transfection reagent was 1:2, and 1 μg of the plasmid was added to each well of the six-well plate, and 2 μl of the transfection reagent was added correspondingly; the plasmid and transfection reagent were diluted with a serum-free medium in advance, shaken well, and allowed to stand at 25° C. for 5 min separately; the transfection reagent was pipetted to the serum-free medium containing the plasmid, flicked to mix well, and allowed to stand at 25° C. for 20 min to obtain a complex. […] Z-VAD-FMK (Selleck) was added to the six-well plate at a concentration of 20 μM 2 h before the transfection, nuclei were colored with a Hoechst 33342 dye, and condition of the cells after transfection was observed under a fluorescence microscope.
# [2] = system: HEK-293T cells; assay: Annexin V-FITC flow cytometry-based apoptosis assay of transfected cells; format: cell-based
# Method: as §1
# as §2, with “microscope. […]” for “microscope.”
Compound,condition of the cells after transfection observed under a fluorescence microscope [1],"survival rate of cells (FIG. 4) ([2]; HEK-293T cells after transfection, in words)",effect on apoptosis ([2]; Bax-BH3 polypeptide expressed by the recombinant vector transfected into HEK-293T cells)
COC(=O)C[C@H](NC(=O)[C@H](C)NC(=O)[C@@H](NC(=O)OCc1ccccc1)C(C)C)C(=O)CF [Z-VAD-FMK] (Cbz-Val-Ala-Asp(OMe)-CH2F),significantly inhibit apoptosis,significantly improved,
DASTKKLSECLRRIGDELDS,,,promoting apoptosis
